Laboratory results taken from patent US20260022143A1, “Cyclic Peptide Inhibitors of IL-23” (JANSSEN PHARMACEUTICA NV, priority 2022, published 2026).
Positions of bridges follow the written chain, without caps; N, C: chain ends. Non-standard residues stand in square brackets, D forms with d. Residues, ends and D or L forms follow the SMILES beside them. *: point of attachment. Me3N+(CH2)2O(CH2)2O(CH2)2CO = C[N+](C)(C)CCOCCOCCC(=O)*; CH2CH2OCH2CH2OCH2CH2NMe3+ = C[N+](C)(C)CCOCCOCC*; Trp(7-Me) = Cc1cccc2c(C[C@H](N)C(=O)O)c[nH]c12; Hexanoyl(6-NMe3+) = C[N+](C)(C)CCCCCC(=O)*; 2Nal = N[C@@H](Cc1ccc2ccccc2c1)C(=O)O; X81 = C[N+](C)(CCCC*)CC[N+]1(C)CCOCC1; AEF = NCCOc1ccc(C[C@H](N)C(=O)O)cc1; dNMeY = CN[C@H](Cc1ccc(O)cc1)C(=O)O; X26 = C[N+](C)(C)CCCCc1cn(CC*)nn1; 3Pal = N[C@@H](Cc1cccnc1)C(=O)O; Lys(Me) = CNCCCC[C@H](N)C(=O)O; X53 = C[N+]1(CCOCCOCC*)CCOCC1; Pen = CC(C)(S)[C@H](N)C(=O)O; αMeK = C[C@](N)(CCCCN)C(=O)O; dOrn = NCCC[C@@H](N)C(=O)O; Thp = NC1(C(=O)O)CCOCC1; Dap = NC[C@H](N)C(=O)O; X3 = C[N+](C)(C)CCCCC*; Me2NCH2CH2 = CN(C)CC*; X61 = COCCOCCCNCC*; Sar = CNCC(=O)O

Assay: Exposed Polar Surface Area (EPSA)
Assay type: physicochemical
Details: SFC on Chirex 3014 column; sample 1 mM DMSO stock; read-out: EPSA
Method in brief: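 Polarity measured by SFC on a Chirex 3014 column (35 °C, 4 mL/min) with methanol/ammonium formate in CO2 as gradient eluent. Retention times were normalised to EPSA (Å^2) against eight reference compounds.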

| EPSA | Structure (SMILES) |
| --- | --- |
| 219 A^2 | CC(=O)NCCCC[C@@H]1NC(=O)[C@H](Cc2c[nH]c3c(C)cccc23)NC(=O)[C@H]([C@@H](C)O)NC(=O)[C@H](CC(N)=O)NC(=O)[C@@H](NC(C)=O)C(C)(C)SSC(C)(C)[C@@H](C(=O)N[C@@H](Cc2ccc(OCCN)cc2)C(=O)N[C@@H](Cc2ccc3ccccc3c2)C(=O)N[C@@](C)(CCCCN)C(=O)N[C@@H](CCCCNC(C)=O)C(=O)N[C@@H](CC(N)=O)C(=O)N[C@H](CCCN)C(=O)N(C)[C@H](Cc2ccc(O)cc2)C(N)=O)NC1=O [compound 18, MeCO-Pen(3)-N-T-7MeW-K(Ac)-Pen(3)-AEF-2Nal-aMeK-K(Ac)-N-orn-NMeDTyr-CONH2] (Ac-[Pen]NT[Trp(7-Me)]K(Ac)[Pen][AEF][2Nal][αMeK]K(Ac)N[dOrn][dNMeY]-NH2; disulfide 1-6) |
| 153 A^2 | COCCOCCCNCCOc1ccc(C[C@H](NC(=O)[C@H]2NC(=O)[C@H](CCCCNC(C)=O)NC(=O)[C@H](Cc3c[nH]c4c(C)cccc34)NC(=O)[C@H]([C@@H](C)O)NC(=O)[C@H](CC(N)=O)NC(=O)[C@@H](NC(=O)CCCCC[N+](C)(C)C)C(C)(C)SSC2(C)C)C(=O)N[C@@H](Cc2ccc3ccccc3c2)C(=O)NC2(C(=O)N[C@@H](CNC(C)=O)C(=O)N[C@@H](CC(N)=O)C(=O)N[C@@H](Cc3cccnc3)C(=O)N(C)CC(N)=O)CCOCC2)cc1 [compound 204] ({Hexanoyl(6-NMe3+)}-[Pen]NT[Trp(7-Me)]K(Ac)[Pen]Y(X61)[2Nal][Thp][Dap](Ac)N[3Pal][Sar]-NH2; disulfide 1-6) |
| 156 A^2 | CC(=O)NCCCC[C@@H]1NC(=O)[C@H](Cc2c[nH]c3c(C)cccc23)NC(=O)[C@H]([C@@H](C)O)NC(=O)[C@H](CC(N)=O)NC(=O)[C@@H](NC(C)=O)C(C)(C)SSC(C)(C)[C@@H](C(=O)N[C@@H](Cc2ccc(OCCN(C)C)cc2)C(=O)N[C@@H](Cc2ccc3ccccc3c2)C(=O)NC2(C(=O)N[C@@H](CNC(C)=O)C(=O)N[C@@H](CC(N)=O)C(=O)N[C@@H](Cc3cccnc3)C(=O)N(C)CC(N)=O)CCOCC2)NC1=O [compound 102] (Ac-[Pen]NT[Trp(7-Me)]K(Ac)[Pen]Y(Me2NCH2CH2)[2Nal][Thp][Dap](Ac)N[3Pal][Sar]-NH2; disulfide 1-6) |
| 136 A^2 | CC(=O)N[C@@H]1C(=O)N[C@@H](CC(=O)N(C)C)C(=O)N[C@@H]([C@@H](C)O)C(=O)N[C@@H](Cc2c[nH]c3c(C)cccc23)C(=O)N[C@@H](CCCCN(C)C(C)=O)C(=O)N[C@H](C(=O)N[C@@H](Cc2ccc(OCCOCCOCC[N+](C)(C)C)cc2)C(=O)N[C@@H](Cc2ccc3ccccc3c2)C(=O)NC2(C(=O)N[C@@H](CCCCN(C)C(=O)CCOCCOCC[N+](C)(C)C)C(=O)N[C@@H](CC(N)=O)C(=O)N[C@@H](Cc3cccnc3)C(=O)N(C)CC(=O)N(C)C)CCOCC2)C(C)(C)SSC1(C)C [compound 218, MeCO-Pen(3)-N(N(Me)2)-T-7MeW-K(NMeAc)-Pen(3)-APEG3F-2Nal-THP-K(NMePEG3a)-N-3Pya-Sar-CON(Me)2] (Ac-[Pen]D(NMe2)T[Trp(7-Me)][Lys(Me)](Ac)[Pen]Y(CH2CH2OCH2CH2OCH2CH2NMe3+)[2Nal][Thp][Lys(Me)](Me3N+(CH2)2O(CH2)2O(CH2)2CO)N[3Pal][Sar]-NMe2; disulfide 1-6) |
| 151 A^2 | CC(=O)N(C)CCCC[C@@H]1NC(=O)[C@H](Cc2c[nH]c3c(C)cccc23)NC(=O)[C@H]([C@@H](C)O)NC(=O)[C@H](CC(=O)N(C)C)NC(=O)[C@@H](NC(=O)CCOCCOCC[N+](C)(C)C)C(C)(C)SSC(C)(C)[C@@H](C(=O)N[C@@H](Cc2ccc(OCCn3cc(CCCC[N+](C)(C)C)nn3)cc2)C(=O)N[C@@H](Cc2ccc3ccccc3c2)C(=O)NC2(C(=O)N[C@@H](CCCCN(C)C(C)=O)C(=O)N[C@@H](CC(N)=O)C(=O)N[C@@H](Cc3cccnc3)C(=O)N(C)CC(=O)N(C)C)CCOCC2)NC1=O [compound 284, cPEG3aCO-Pen(3)-N(N(Me)2)-T-7MeW-K(NMeAc)-Pen(3)-Y(OTzlTMA4)-2Nal-THP-K(NMeAc)-N-3Pya-Sar-CON(Me)2] ({Me3N+(CH2)2O(CH2)2O(CH2)2CO}-[Pen]D(NMe2)T[Trp(7-Me)][Lys(Me)](Ac)[Pen]Y(X26)[2Nal][Thp][Lys(Me)](Ac)N[3Pal][Sar]-NMe2; disulfide 1-6) |
| 150 A^2 | CC(=O)NCCCC[C@@H]1NC(=O)[C@H](Cc2c[nH]c3c(C)cccc23)NC(=O)[C@H]([C@@H](C)O)NC(=O)[C@H](CC(N)=O)NC(=O)[C@@H](NC(C)=O)C(C)(C)SSC(C)(C)[C@@H](C(=O)N[C@@H](Cc2ccc(OCCN)cc2)C(=O)N[C@@H](Cc2ccc3ccccc3c2)C(=O)NC2(C(=O)N[C@@H](CCCCNC(=O)CCOCCOCC[N+](C)(C)C)C(=O)N[C@@H](CC(N)=O)C(=O)N[C@@H](Cc3cccnc3)C(=O)N(C)CC(N)=O)CCOCC2)NC1=O [compound 86] (Ac-[Pen]NT[Trp(7-Me)]K(Ac)[Pen][AEF][2Nal][Thp]K(Me3N+(CH2)2O(CH2)2O(CH2)2CO)N[3Pal][Sar]-NH2; disulfide 1-6) |
| 167 A^2 | CC(=O)NCCCC[C@@H]1NC(=O)[C@H](Cc2c[nH]c3c(C)cccc23)NC(=O)[C@H]([C@@H](C)O)NC(=O)[C@H](CC(N)=O)NC(=O)[C@@H](NC(C)=O)C(C)(C)SSC(C)(C)[C@@H](C(=O)N[C@@H](Cc2ccc(OCCOCCOCC[N+]3(C)CCOCC3)cc2)C(=O)N[C@@H](Cc2ccc3ccccc3c2)C(=O)NC2(C(=O)N[C@@H](CCC(=O)O)C(=O)N[C@@H](CC(N)=O)C(=O)N[C@@H](Cc3cccnc3)C(=O)N(C)CC(N)=O)CCOCC2)NC1=O [compound 432] (Ac-[Pen]NT[Trp(7-Me)]K(Ac)[Pen]Y(X53)[2Nal][Thp]EN[3Pal][Sar]-NH2; disulfide 1-6 (inferred)) |
| 159 A^2 | CC(=O)N(C)CCCC[C@@H]1NC(=O)[C@H](Cc2c[nH]c3c(C)cccc23)NC(=O)[C@H]([C@@H](C)O)NC(=O)[C@H](CC(=O)N(C)C)NC(=O)[C@@H](NC(=O)CCOCCOCC[N+](C)(C)C)C(C)(C)SSC(C)(C)[C@@H](C(=O)N[C@@H](Cc2ccc(OCCCC[N+](C)(C)CC[N+]3(C)CCOCC3)cc2)C(=O)N[C@@H](Cc2ccc3ccccc3c2)C(=O)NC2(C(=O)N[C@@H](CCCCN(C)C(C)=O)C(=O)N[C@@H](CC(N)=O)C(=O)N[C@@H](Cc3cccnc3)C(=O)N(C)CC(=O)N(C)C)CCOCC2)NC1=O [compound 271, cPEG3aCO-Pen(3)-N(N(Me)2)-T-7MeW-K(NMeAc)-Pen(3)-morfTMA4F-2Nal-THP-K(NMeAc)-N-3Pya-Sar-CON(Me)2] ({Me3N+(CH2)2O(CH2)2O(CH2)2CO}-[Pen]D(NMe2)T[Trp(7-Me)][Lys(Me)](Ac)[Pen]Y(X81)[2Nal][Thp][Lys(Me)](Ac)N[3Pal][Sar]-NMe2; disulfide 1-6) |
| 154 A^2 | CC(=O)N(C)CCCC[C@@H]1NC(=O)[C@H](Cc2c[nH]c3c(C)cccc23)NC(=O)[C@H]([C@@H](C)O)NC(=O)[C@H](CC(=O)N(C)C)NC(=O)[C@@H](NC(=O)CCOCCOCC[N+](C)(C)C)C(C)(C)SSC(C)(C)[C@@H](C(=O)N[C@@H](Cc2ccc(OCCCCC[N+](C)(C)C)cc2)C(=O)N[C@@H](Cc2ccc3ccccc3c2)C(=O)NC2(C(=O)N[C@@H](C)C(=O)N[C@@H](CC(N)=O)C(=O)N[C@@H](Cc3cccnc3)C(=O)N(C)CC(=O)N(C)C)CCOCC2)NC1=O [compound 316, cPEG3aCO-Pen(3)-N(N(Me)2)-T-7MeW-K(NMeAc)-Pen(3)-TMAPF-2Nal-THP-A-N-3Pya-Sar-CON(Me)2] ({Me3N+(CH2)2O(CH2)2O(CH2)2CO}-[Pen]D(NMe2)T[Trp(7-Me)][Lys(Me)](Ac)[Pen]Y(X3)[2Nal][Thp]AN[3Pal][Sar]-NMe2; disulfide 1-6) |
